# Experimental data published in patent publication US20240385198A1, “STING MODULATOR COMPOSITIONS AND METHODS OF USE AND DETECTION THEREOF” (University of South Florida, priority 2023, published 2024).
# Like-named read-outs stand apart in the source and are kept apart here.
# How the values were obtained:
# His-labeled STING = His-labeled STING (Homo sapiens, UniProt Q86WV6, H232R); assay: Microscale thermophoresis (MST) analysis of STING modulators with 50 nM 2,3-cGAMP (Example 2); assay type: binding; conditions: compounds incubated with 50 nM 2,3-cGAMP
# His-labeled STING, sequence (Q86WV6 138-379 H232R): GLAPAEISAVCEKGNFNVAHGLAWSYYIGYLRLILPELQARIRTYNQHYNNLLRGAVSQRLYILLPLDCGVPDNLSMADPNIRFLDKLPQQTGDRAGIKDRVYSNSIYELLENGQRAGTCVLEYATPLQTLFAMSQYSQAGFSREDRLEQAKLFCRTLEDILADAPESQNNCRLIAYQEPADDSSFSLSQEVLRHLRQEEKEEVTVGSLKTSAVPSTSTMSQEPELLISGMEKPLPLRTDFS
# Method: Nanotemper Monolith NT.115 labeled thermophoresis machine (NanoTemper Technologies GmbH, München, Germany) was used with standard treated capillary tubes using samples comprised of labeled protein and titrations of small molecule in 1×PBS. […] Detection of the protein was performed using the blue detection channel with LED excitation power set to 90% and MST set to high allowing 3 s prior to MST on to check for initial fluorescence differences, 25 s for thermophoresis, and 3 s for regeneration after MST off.
# […] Analysis was performed using M.O. Affinity Analysis Software with difference between initial fluorescence measured in the first 5 s as compared with thermophoresis at 15 s at 15 different analyte concentrations ranging from 100 zM to […] and exported into Graphpad Prism v.8 using a Log inhibitor v. response 4 parameter fit.
# Microscale Thermophoresis (MST) was performed on compounds incubating with 50 nM 2,3-cGAMP. Confidence is categorized as follows: 1=low confidence (<2 MST shift unit-non-statistical); 2=mid confidence (2-3 MST shift units-intermediate); 3=high confidence ([…]-statistical). Dissociation constants are categorized as follows: A<1 pM; 1 pM≤B<100 pM; 100 pM≤C<10 μM; 10 μM≤D<100 μM.
# [1] = tested on: STING R232 variant (human recombinant); assay: MST competition assay of STING oligomerization with 2′,3′-cGAMP (Example 1); assay type: binding; conditions: 100 nM STING, 50 nM 2′,3′-cGAMP; for EC50 interactions (high, mid, low affinity) from MST dose-response: 1:10 series dilution 100 mM to 100 zM, FIGS. 3A, 3B, 4; for Interaction with STING as a function of incubation time (dose-response curves): 15 min, 30 min, 45 min incubation, FIGS. 2A-2C
# Text: Temperature Related Intensity Change (TRIC) is a biophysical technique that measures the strength of the interaction between two molecules by detecting a variation in the fluorescence signal of a fluorescently labeled or intrinsically fluorescent target as a result of an IR-laser induced temperature change. The extent of the temperature dependence is strongly related to the chemical environment of the fluorophore, which can be changed by the binding of a ligand to the target. Binding events below the picomolar level are difficult to detect because below this level, the ratio between target protein and analyte is too large for the detector to accurately measure movement. Herein describes a competition assay involving STING along with 2′,3′-cGAMP to detect analyte interaction with STING at sub-picomolar levels by measuring changes to oligomerization of STING.
# The NanoTemper Pico instrument produces data in three separate phases: fluorescent count; normalized MST time-trace; and the change in normalized fluorescence (ΔFnorm) result. The fluorescent count is done to ensure that there is no difference between overall fluorescence between fractions, that there is enough fluorescent signal present for the detector to accurately give a reading, but not too much as to negatively affect migration during thermophoresis. It also gives indication if there is aggregation or adsorption within samples. The normalized MST time-trace gives an indication of the movement of molecules by thermophoresis within the detector sight picture over a period of time (T−Jump). The final graph is a ΔFnorm readout which is mathematically determined using the formula:
# ΔFnorm=Fhot/Fcold • whereas Fhot equals an area designated by the analyst, located within the T−Jump area and Fcold equals the area within the initial fluorescence area just before the infrared (IR) laser heats the capillary tube.
# STING R232 variant (human recombinant) protein was solubilized at 200 nM in HBS-P (0.01M HEPES pH 7.4, 0.15 NaCl, 0.005% v/v surfactant P20) along with 100 nM 2′,3′-cGAMP. 100 nM of NTAAtto 488 dye (blue; nitrilotriacetic acid complexed to Ni^2+) was added and incubated for 1 hour at room temperature covered from light. The resulting mixture was centrifuged at 12,000×RPM for 10 minutes prior to use. A 1:10 series dilution from 200 mM to 200 zM was created using HBS-P with 1% DMSO. The dyed STING/2′,3′-cGAMP mixture was added to each sample in a 1:1 ratio, resulting in a static 100 nM STING, 50 nM 2′,3′-cGAMP, and a concentration range from 100 mM to 100zM. Samples were incubated for 15-minutes prior to load into Monolith NT.115 capillaries and ran on dianthus NT.23 NanoTemper Pico instrument (NanoTemper Technologies GmbH, München, Germany). Samples were run again at 30- and 45-minutes.
# [2] = read-out: Dissociation Constant
# [3] = first of two binding events, read-out: Dissociation Constant Kd1
# [4] = second of two binding events, read-out: Dissociation Constant Kd2
Compound,Kd (His-labeled STING; [2]) [nM],Confidence (MST shift units) (His-labeled STING),also measured
Cc1c(Cl)cccc1Nc1ncccc1COCC(O)CO (stereo not drawn) [Compound 1],0.001 to 0.1,1 (1=low confidence (<2 MST shift unit-non-statistical)),
Cc1c(Cl)cccc1Nc1ncccc1CO [Compound 4],< 0.001,2 (2=mid confidence (2-3 MST shift units-intermediate)),
COC(=O)c1cccnc1Nc1cccc(Cl)c1C [Compound 9],,3 (3=high confidence (>2 MST shift units-statistical)),Kd (His-labeled STING; [3]): 0.1 to 10000 nM; Kd (His-labeled STING; [4]): < 0.001 nM
CCOC(=O)c1cccnc1Nc1cccc(Cl)c1C [Compound 10],,1 (1=low confidence (<2 MST shift unit-non-statistical)),Dissociation Constant (His-labeled STING): Low R2
CCCOC(=O)c1cccnc1Nc1cccc(Cl)c1C [Compound 11],,1 (1=low confidence (<2 MST shift unit-non-statistical)),Kd (His-labeled STING; [3]): 0.1 to 10000 nM; Kd (His-labeled STING; [4]): < 0.001 nM
Cc1c(Br)cccc1Nc1ncccc1C(=O)O [Compound 23],10000 to 100000,3 (3=high confidence (>2 MST shift units-statistical)),
COC(=O)c1cccnc1Nc1cccc(Br)c1C [Compound 24],0.001 to 0.1,1 (1=low confidence (<2 MST shift unit-non-statistical)),
Cc1c(Br)cccc1Nc1ncccc1C(=O)OCC(O)CO (stereo not drawn) [Compound 26],< 0.001,,
Cc1c(Nc2ncccc2C(=O)O)cccc1C(F)(F)F [Compound 27],0.1 to 10000,3 (3=high confidence (>2 MST shift units-statistical)),
Cc1c(Nc2ncccc2C(=O)OCC(O)CO)cccc1C(F)(F)F (stereo not drawn) [Compound 29],< 0.001,,
COC(=O)c1cccnc1Nc1cccc(C(F)(F)F)c1C [Compound 30],0.001 to 0.1,,
Cc1c(Cl)cccc1Nc1ccccc1C(=O)O [Compound 36],,1 (1=low confidence (<2 MST shift unit-non-statistical)),Dissociation Constant (His-labeled STING): No Binding
Cc1c(Cl)cccc1Nc1ccccc1C(=O)OCC(O)CO (stereo not drawn) [Compound 38],,1 (1=low confidence (<2 MST shift unit-non-statistical)),Kd (His-labeled STING; [3]): 0.1 to 10000 nM; Kd (His-labeled STING; [4]): < 0.001 nM
Cc1c(Cl)cccc1Nc1ncccc1CN [Compound 40],,,Kd (His-labeled STING; [3]): 0.1 to 10000 nM; Kd (His-labeled STING; [4]): < 0.001 nM
CCC(COC(=O)c1cccnc1Nc1cccc(Br)c1C)OC (stereo not drawn) [Compound 42],,2 (2=mid confidence (2-3 MST shift units-intermediate)),
CCC(COC(=O)c1cccnc1Nc1cccc(C)c1C)OC (stereo not drawn) [Compound 43],,1 (1=low confidence (<2 MST shift unit-non-statistical)),
COC(=O)c1cccnc1Nc1cccc(F)c1C [Compound 44],0.001 to 0.1,1 (1=low confidence (<2 MST shift unit-non-statistical)),
Cc1cccc(Nc2ccccc2C(=O)O)c1C [Compound 45],,1 (1=low confidence (<2 MST shift unit-non-statistical)),Dissociation Constant (His-labeled STING): No Binding
CCC(COC(=O)c1ccccc1Nc1cccc(C)c1C)OC (stereo not drawn) [Compound 46],,1 (1=low confidence (<2 MST shift unit-non-statistical)),
Cc1cccc(Nc2ncccc2C(=O)O)c1C [Compound 47],,1 (1=low confidence (<2 MST shift unit-non-statistical)),Dissociation Constant (His-labeled STING): No Binding
Cc1cccc(Nc2ncccc2C(=O)OCC(O)CO)c1C (stereo not drawn) [Compound 48],,1 (1=low confidence (<2 MST shift unit-non-statistical)),Dissociation Constant (His-labeled STING): No Binding
NC(=O)NC1NC(=O)NC1=O (stereo not drawn) [Compound 52],,3 (3=high confidence (>2 MST shift units-statistical)),Kd (His-labeled STING; [3]): 0.1 to 10000 nM; Kd (His-labeled STING; [4]): < 0.001 nM
COC(=O)c1cccnc1Nc1cccc(Cl)c1C [Formula (I)],,,"EC50 interactions (high, mid, low affinity) from MST dose-response [1]: several nonlinear regression curves"
C#CCOC(=O)c1cccnc1Nc1cccc(Cl)c1C [Formula (II)],,,"EC50 interactions (high, mid, low affinity) from MST dose-response [1]: only a low affinity EC50"
CNC(=O)c1cccnc1Nc1cccc(Cl)c1C [Formula (III)],,,Interaction with STING as a function of incubation time (dose-response curves) [1]: relatively slow interaction
CNCc1cccnc1Nc1cccc(Cl)c1C [Formula (IV)],,,Interaction with STING as a function of incubation time (dose-response curves) [1]: relatively rapid interaction with STING that was not maintained

# More lines, main results first:
Kd (His-labeled STING; [2]) [nM],Compound,Confidence (MST shift units) (His-labeled STING),also measured
10000 to 100000,C#CCOC(=O)c1cccnc1Nc1cccc(Cl)c1C [Compound 13],2 (2=mid confidence (2-3 MST shift units-intermediate)),
0.1 to 10000,CNC(=O)c1cccnc1Nc1cccc(Cl)c1C [Compound 14],2 (2=mid confidence (2-3 MST shift units-intermediate)),
0.1 to 10000,CCNC(=O)c1cccnc1Nc1cccc(Cl)c1C [Compound 15],1 (1=low confidence (<2 MST shift unit-non-statistical)),
0.1 to 10000,CCCNC(=O)c1cccnc1Nc1cccc(Cl)c1C [Compound 16],2 (2=mid confidence (2-3 MST shift units-intermediate)),
0.1 to 10000,C=CCNC(=O)c1cccnc1Nc1cccc(Cl)c1C [Compound 17],1 (1=low confidence (<2 MST shift unit-non-statistical)),
< 0.001,Cc1c(Cl)cccc1Nc1ncccc1C(=O)OCC(O)CO (stereo not drawn) [Compound 19],1 (1=low confidence (<2 MST shift unit-non-statistical)),
0.1 to 10000,CCCCC(=O)c1cccnc1Nc1cccc(Cl)c1C [Compound 21],2 (2=mid confidence (2-3 MST shift units-intermediate)),
0.1 to 10000,Cc1c(Cl)cccc1Nc1ncccc1C(=O)OCCCOC(=O)c1cccnc1Nc1cccc(Cl)c1C [Compound 41],1 (1=low confidence (<2 MST shift unit-non-statistical)),
0.001 to 0.1,Cc1c(Cl)cccc1Nc1ncccc1C(=O)OCCCCOC(=O)c1cccnc1Nc1cccc(Cl)c1C [Compound 49],1 (1=low confidence (<2 MST shift unit-non-statistical)),
0.1 to 10000,Cc1c(Cl)cccc1Nc1ncccc1C(=O)OCCCCCOC(=O)c1cccnc1Nc1cccc(Cl)c1C [Compound 50],3 (3=high confidence (>2 MST shift units-statistical)),
